Results taken from US9682131B2, “Compositions and method for utilization of thioretinamide in therapy of degenerative diseases of aging” (priority 2011, dated 2017).

Experiments:
[1] = Toxicity in human trials; details: 7.5 mg/70 kg/day to 300 mg/70 kg/day
[2] = Toxicity in animal tests; details: 7.5 mg/70 kg/day to 300 mg/70 kg/day
[3] = test system: transplanted neoplasms; details: cited from earlier work; for growth of transplanted neoplasms in animals: U.S. Pat. No. 4,383,994
[4] = test system: retinal cells; details: through reactive oxygen species generation and increased expression of heme oxygenase; J Cell Physiol 2006; cited from earlier work
[5] = test system: transplanted malignant neoplasms; details: animals with transplanted malignant neoplasms; U.S. Pat. No. 4,255,443; cited from earlier work
[6] = Carcinogenesis 1987; 8:1559-1562; Proc Soc Exp Biol Med 1989; 191:346-351; cited from earlier work
[7] = test system: rats treated with parenteral homocysteine thiolactone; details: Kazimir et al 2002; cited from earlier work
[8] = test system: transplanted murine mammary adenocarcinoma; details: Chemotherapy 1977; 23:44-49; cited from earlier work
[9] = test system: normal and hypophysectomized animals; details: Science 1976, 192:372-374, cited from earlier work

Compound: CC1=C(/C=C/C(C)=C/C=C/C(C)=C/CO)C(C)(C)CCC1 [retinol]
- evidence of toxicity, such as weight loss, nausea, impairment of liver function, headache, or skin lesions [1]: no evidence of toxicity
- evidence of toxicity, such as weight loss, nausea, impairment of liver function, headache, or skin lesions [2]: no evidence of toxicity

Compound: N-maleyl homocysteine thiolactone amide
- growth of transplanted neoplasms in animals [3]: suppress the growth

Compound: CC1=C(/C=C/C(C)=C/C=C/C(C)=C/C(=O)Nc2ccc(O)cc2)C(C)(C)CCC1 [fenretinide, N-(4-hydroxyphenyl)-retinamide]
- apoptosis in retinal cells [4]: induces apoptosis

Compound: N[C@H]1CCSC1=O.[O-][Cl+3]([O-])([O-])O [homocysteine thiolactone perchlorate]
- necrosis within malignant neoplasms [5]: increased necrosis within malignant neoplasms

Compound: rhodium trichloride oxalyl homocysteine thiolactone amide
- growth of transplanted neoplasms in animals [3]: suppress the growth

Compound: N-homocysteine thiolactonyl retinamido cobalamin [thioretinaco]
- anti-carcinogenic and anti-neoplastic activities [6]: have anti-carcinogenic and anti-neoplastic activities
- anti-atherogenic activity [7]: have anti-atherogenic activity

Compound: CC1=C(/C=C/C(C)=C/C=C/C(C)=C/C(=O)NC2CCSC2=O)C(C)(C)CCC1 (stereo not shown) [thioretinamide, N-homocysteine thiolactonyl retinamide]
- anti-carcinogenic and anti-neoplastic activities [6]: have anti-carcinogenic and anti-neoplastic activities
- anti-atherogenic activity [7]: have anti-atherogenic activity

Compound: pyridoxal homocysteine thiolactone enamine
- growth of transplanted murine mammary adenocarcinoma [8]: decrease the growth

Compound: N[C@@H](CCS(=O)(=O)O)C(=O)O [Homocysteic acid]
- growth and release of insulin-like growth factor, IGF-1 ([9]; hypophysectomized animals treated with thyroxine): promotes growth and release of insulin-like growth factor, IGF-1
- growth in normal animals ([9]; normal animals): promotes growth

Compound: N-maleamide homocysteine thiolactone amide
- growth of transplanted neoplasms in animals [3]: suppress the growth
- effect of encapsulation within liposomes on anti-neoplastic activity ([3]; encapsulated within liposomes, Proc Soc Exp Biol Med 1985, 180:57-61): greatly enhances its anti-neoplastic activity

Compound: CCCCC/C=C/C/C=C/C/C=C/C/C=C/CCCC(=O)NC1CCSC1=O (stereo not shown) [Arachidonoyl homocysteine thiolactone amide]
- growth of transplanted murine mammary adenocarcinoma [8]: decrease the growth
